Like-named read-outs stand apart in the source and are kept apart here.
Key:
[1] = system: T-Rex 293 cell line SC3 cells having increased expression of androgen receptor protein; assay: Cellular growth inhibition, T-Rex 293 SC3 cells with increased androgen receptor expression (doxycycline), CellTiter-Glo; assay type: cell-based; settings: T-Rex 293 SC3 cells with increased androgen receptor expression (exposed to 10 ng/mL doxycycline), 72 hours, CellTiter-Glo; read-out: GI50
Procedure: (§1) The following types of cells were prepared for this experiment: (i) a T-Rex 293 cell line having increased expression of androgen receptor protein due to exposure to doxycycline and (ii) a T-Rex 293 cell line lacking increased expression of androgen receptor protein. Ability of the test compounds to inhibit proliferation of the foregoing cell types was evaluated according to the procedures set forth below.
(§2) The doxycycline-inducible androgen receptor protein expressing cell line was established using the following protocol: T-Rex 293 cells were purchased from Invitrogen (Cat #R71007) and transfected using Lipofectamine 2000 with the wild-type androgen receptor protein sequence cloned into the pcDNA4/TO vector. Transfected cells were selected using 400 μg/mL Zeocin (Invitrogen Cat #R25001). Following selection, single clones were raised and maintained in Dulbecco's Modified Eagle Medium (DMEM) supplemented with 10% w/w Tetracycline-free fetal bovine serum (FBS) and 250 μg/mL Zeocin. Clones were analyzed for expression of androgen receptor protein in the presence and absence of 10 ng/ml doxycycline (Sigma Cat #D9891), and a single doxycycline-inducible clone (hereinafter “SC3”) was selected for use in downstream assays.
(§3) The SC3 cells were seeded on poly-D-lysine coated, black clear-bottom 384-well plates at 2500/well, in 25 μL Phenol Red Free Dulbecco's Modified Eagle Medium (DMEM) supplemented with 10% w/w charcoal-dextran treated fetal bovine serum (FBS) and 1% w/w pen-strep, with or without 10 ng/mL doxycycline. Pen-Strep is a commercially available mixture of penicillin G and streptomycin, which is used in mammalian cell culture media to prevent bacterial contamination. Phenol Red Free Dulbecco's Modified Eagle Medium (DMEM) supplemented with 10% w/w charcoal-dextran treated fetal bovine serum (FBS) and 1% w/w pen-strep, with or without 10 ng/mL doxycycline is herein referred to as Treatment Medium. Following seeding of cells in the plates, the plates were spun at 300×g for 30 seconds, then equilibrated to room temperature for 30 minutes, and then deposited in a humidified tissue culture incubator maintained at 37° C. with 5% CO2.
(§4) At 24 hours after seeding of the cells, dilutions of test compound were prepared in DMSO and dissolved in Treatment Medium, to achieve a final DMSO concentration of 0.5% w/w, thereby providing the Test Compound Solution. A 25 μL aliquot of the Test Compound Solution was added to cells in the well plates. An equal volume of a solution containing DMSO and Treatment Medium was used as a negative control. Following treatment of cells with Test Compound Solution or said equal volume of a solution containing DMSO and Treatment Medium, the plates were spun at 300×g for 30 seconds, and then left in an incubator for 72 hours.
(§5) At the end of the treatment duration, cell viability was quantified with CellTiter-Glo 2.0 reagent (Promega Cat #G9243). For this purpose, plates were equilibrated to room temperature for 30 minutes, and then 25 μL of CellTiter-Glo 2.0 reagent was added to cells in the plate wells. Plates were then agitated on a shaker for two minutes at 500 rpm and subsequently incubated at room temperature for 10 minutes. Following incubation, the plates were spun at 3000×g for 30 seconds, then sealed with an optical adhesive cover, and luminescence readings were measured with an EnVision Plate Reader.
(§6) Data was normalized using zero luminescence for baseline. A four-parameter non-linear regression curve fit was applied to dose-response data in GraphPad Prism data analysis software to determine the half-maximal growth inhibitory concentration (GI50) for each test compound.

VCaP cells = assay: Cellular growth inhibition assay for VCaP cells, CellTiter-Glo; assay type: cell-based, human; settings: VCaP cells, 72 hours, CellTiter-Glo, read-out: GI50
Procedure: VCaP cells were purchased from American Type Cell Culture (ATCC Cat #CRL2876) and then seeded on poly-D-lysine coated, black clear-bottom 384-well plates at 5000/well in 25 μL Dulbecco's Modified Eagle Medium (DMEM) supplemented with 10% w/w Fetal bovine serum (FBS) and 1% w/w Pen-Strep. Pen-Strep is a commercially available mixture of penicillin G and streptomycin, which is used in mammalian cell culture media to prevent bacterial contamination. Dulbecco's Modified Eagle Medium (DMEM) supplemented with 10% w/w fetal bovine serum (FBS) and 1% w/w Pen-Strep is herein referred to as Treatment Medium. Following seeding of cells in the plates, the plates were spun at 300×g for 30 seconds, then equilibrated to room temperature for 30 minutes, and then deposited in a humidified tissue culture incubator maintained at 37° C. with 5% CO2.
as §4, §5, §6

[2] = system: T-Rex 293 cell line SC3 cells lacking increased expression of androgen receptor protein; assay: Cellular growth inhibition, T-Rex 293 SC3 cells lacking increased androgen receptor expression (no doxycycline), CellTiter-Glo; assay type: cell-based; settings: T-Rex 293 SC3 cells lacking increased androgen receptor expression (not exposed to doxycycline), 72 hours, CellTiter-Glo; read-out: GI50
Procedure: as §1, §2, §3, §4, §5, §6

Compound | GI50 [1] [nM] | GI50 (VCaP cells) [nM] | GI50 [2] [nM] | GI50 (VCaP cells; Homo sapiens) [nM]
Cn1cc(-c2cc(C(C)(C)O)ccc2Oc2ccc(C3CC4(CCN(c5ccc(C(=O)N[C@H]6CC[C@H](Oc7ccc(C#N)c(Cl)c7)CC6)nn5)CC4)C3)cc2)c2cc[nH]c2c1=O [I-117] | < 500 | < 500 | < 500 | –
CCS(=O)(=O)c1ccc(Oc2cccc(OCCOC3CCN(c4cnc(C(=O)N[C@H]5CC[C@H](Oc6ccc(C#N)c(Cl)c6)CC5)cn4)CC3)c2F)c(-c2cn(C)c(=O)c3[nH]ccc23)c1 [I-32] | < 500 | – | < 500 | < 500
CCS(=O)(=O)Nc1ccc(Oc2cccc(CCOC3CCN(c4ccc(C(=O)N[C@H]5CC[C@H](Oc6ccc(C#N)c(Cl)c6)CC5)nn4)CC3)c2F)c(-c2cn(C)c(=O)c3[nH]ccc23)c1 [I-11] | < 500 | – | < 500 | < 500
CCS(=O)(=O)c1ccc(Oc2ccc(CCC3CCN(c4ccc(C(=O)NC5CCC(Oc6ccc(C#N)c(Cl)c6)CC5)nn4)CC3)c(F)c2)c(-c2cn(C)c(=O)c3ccccc23)c1 (stereo not drawn) [I-243, N-[4-(3-chloro-4-cyano-phenoxy)cyclohexyl]-6-[4-[2-[4-[4-ethylsulfonyl-2-(2-methyl-1-oxo-4-isoquinolyl)phenoxy]-2-fluoro-phenyl]ethyl]-1-piperidyl]pyridazine-3-carboxamide] | < 500 | – | > 3000 | < 500
CCS(=O)(=O)c1ccc(Oc2cccc(CCCOC3CCN(c4ccc(C(=O)N[C@H]5CC[C@H](Oc6ccc(C#N)c(Cl)c6)CC5)nn4)CC3)c2F)c(-c2cn(C)c(=O)c3[nH]ccc23)c1 [I-27] | < 500 | – | < 500 | < 500
CCS(=O)(=O)Cc1ccc(Oc2cccc(OCCOC3CCN(c4ccc(C(=O)N[C@H]5CC[C@H](Oc6ccc(C#N)c(Cl)c6)CC5)nn4)CC3)c2F)c(-c2cn(C)c(=O)c3[nH]ccc23)c1 [I-22] | < 500 | – | < 500 | < 500
CCS(=O)(=O)c1ccc(Oc2ccc(CCCCC3CCN(c4ccc(C(=O)N[C@H]5CC[C@H](Oc6ccc(C#N)c(Cl)c6)CC5)nn4)CC3)cc2)c(-c2cn(C)c(=O)c3[nH]ccc23)c1 [I-64] | < 500 | < 500 | 500 to 1500 | –
CCS(=O)(=O)c1ccc(Oc2ccc(CCN3CC4(C3)CN(c3ccc(C(=O)N[C@H]5CC[C@H](Oc6ccc(C#N)c(Cl)c6)CC5)nn3)C4)cc2)c(-c2cn(C)c(=O)c3[nH]ccc23)c1 [I-63] | < 500 | < 500 | < 500 | –
CCS(=O)(=O)Nc1ccc(Oc2ccc(OCCOC3CCN(c4ccc(C(=O)N[C@H]5CC[C@H](Oc6ccc(C#N)c(Cl)c6)CC5)nn4)CC3)cc2)c(-c2cn(C)c(=O)c3[nH]ccc23)c1 [I-34] | < 500 | < 500 | < 500 | –
Cn1cc(-c2cc(C3(O)COC3)ccc2Oc2ccc(OCC3CCN(c4ccc(C(=O)NC5CCC(Oc6ccc(C#N)c(Cl)c6)CC5)nn4)CC3)cc2)c2cc[nH]c2c1=O (stereo not drawn) [I-236, N-[4-(3-chloro-4-cyano-phenoxy)cyclohexyl]-6-[4-[[4-[4-(3-hydroxyoxetan-3-yl)-2-(6-methyl-7-oxo-1H-pyrrolo[2,3-c]pyridin-4-yl)phenoxy]phenoxy]methyl]-1-piperidyl]pyridazine-3-carboxamide] | < 500 | < 500 | > 3000 | –
Cn1cc(-c2cc(C(C)(C)O)ccc2Oc2ccc(CN3CC4(CCN(c5ccc(C(=O)N[C@H]6CC[C@H](Oc7ccc(C#N)c(Cl)c7)CC6)nn5)CC4)C3)cc2)c2cc[nH]c2c1=O [I-120] | < 500 | – | < 500 | < 500
Cn1cc(-c2ccccc2Oc2ccc(OCC3CCN(c4ccc(C(=O)N[C@H]5CC[C@H](Oc6ccc(C#N)c(Cl)c6)CC5)nn4)CC3)cc2)c2cc[nH]c2c1=O [I-255, N-[4-(3-chloro-4-cyano-phenoxy)cyclohexyl]-6-[4-[[4-[2-(6-methyl-7-oxo-1H-pyrrolo[2,3-c]pyridin-4-yl)phenoxy]phenoxy]methyl]-1-piperidyl]pyridazine-3-carboxamide] | < 500 | – | > 3000 | < 500
Cn1cc(-c2cc(C(C)(C)O)ccc2OC2CC(OCC3CCN(c4ccc(C(=O)NC5CCC(Oc6ccc(C#N)c(Cl)c6)CC5)nn4)CC3)C2)c2ccccc2c1=O (stereo not drawn) [I-247, N-[4-(3-chloro-4-cyano-phenoxy)cyclohexyl]-6-[4-[[3-[4-(1-hydroxy-1-methyl-ethyl)-2-(2-methyl-1-oxo-4-isoquinolyl)phenoxy]cyclobutoxy]methyl]-1-piperidyl]pyridazine-3-carboxamide] | < 500 | – | > 3000 | < 500
CCS(=O)(=O)Nc1ccc(Oc2cccc(OCCN3CCN(c4ccc(C(=O)N[C@H]5CC[C@H](Oc6ccc(C#N)c(Cl)c6)CC5)nn4)CC3)c2F)c(-c2cn(C)c(=O)c3[nH]ccc23)c1 [I-14] | < 500 | – | < 500 | < 500
CCS(=O)(=O)c1ccc(-c2cn(C)c(=O)c3[nH]ccc23)c(-n2cc(CCC3CCN(c4ccc(C(=O)NC5CCC(Oc6ccc(C#N)c(Cl)c6)CC5)nn4)CC3)ncc2=O)c1 (stereo not drawn) [I-238, N-[4-(3-chloro-4-cyano-phenoxy)cyclohexyl]-6-[4-[2-[4-[5-ethylsulfonyl-2-(6-methyl-7-oxo-1H-pyrrolo[2,3-c]pyridin-4-yl)phenyl]-5-oxo-pyrazin-2-yl]ethyl]-1-piperidyl]pyridazine-3-carboxamide] | > 3000 | – | > 3000 | < 500
CCS(=O)(=O)Nc1ccc(Oc2cccc(OCCOC3CCN(c4ccc(C(=O)N[C@H]5CC[C@H](Oc6ccc(C#N)c(Cl)c6)CC5)nn4)CC3)c2F)c(-c2cn(C)c(=O)c3[nH]ccc23)c1 [I-16] | < 500 | – | < 500 | < 500
Cn1cc(-c2cc(Br)ccc2Oc2ccc(CCC3CCN(c4ccc(C(=O)NC5CCC(Oc6ccc(C#N)c(Cl)c6)CC5)nn4)CC3)cc2)c2cc[nH]c2c1=O (stereo not drawn) [I-241, 6-[4-[2-[4-[4-bromo-2-(6-methyl-7-oxo-1H-pyrrolo[2,3-c]pyridin-4-yl)phenoxy]phenyl]ethyl]-1-piperidyl]-N-[4-(3-chloro-4-cyano-phenoxy)cyclohexyl]pyridazine-3-carboxamide] | < 500 | – | > 3000 | < 500
Cn1cc(-c2cc(NS(=O)(=O)CC(F)(F)F)ccc2Oc2cccc(OCCOC3CCN(c4ccc(C(=O)N[C@H]5CC[C@H](Oc6ccc(C#N)c(Cl)c6)CC5)nn4)CC3)c2F)c2cc[nH]c2c1=O [I-17] | < 500 | – | < 500 | < 500
Cn1cc(-c2cc(C(C)(C)O)ccc2Oc2ccc(CC3CC4(C3)CN(c3ccc(C(=O)N[C@H]5CC[C@H](Oc6ccc(C#N)c(Cl)c6)CC5)nn3)C4)cc2)c2cc[nH]c2c1=O [I-118] | < 500 | – | < 500 | < 500
Cn1cc(-c2cc(C(C)(C)O)ccc2Oc2cccc(N3CC(N(C4CC4)C4CCN(c5ccc(C(=O)N[C@H]6CC[C@H](Oc7ccc(C#N)c(Cl)c7)CC6)nn5)CC4)C3)c2F)c2cc[nH]c2c1=O [I-145] | < 500 | < 500 | > 3000 | –

Reference: patent US20250388575A1, “HETEROBIFUNCTIONAL COMPOUNDS AND METHODS OF TREATING DISEASE” (Halda Therapeutics OpCo, Inc., priority 2022, published 2025)
